Measured values: PubChem BioAssay (NCI)
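Step 1: Grow cells in 96-well plates. Step 2: Expose to compound for 48 hours at 5 concentrations. Step 3: Interpolate endpoints linearly; if unreached, use highest concentration. TGI: total growth inhibition.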

Experiments:
Assay in all cases: NCI tumour cell line growth inhibition, 48 h
DLD-1 colon = tested on: DLD-1 colon
M19-MEL melanoma = tested on: M19-MEL melanoma
P388 leukemia = tested on: P388 leukemia
SN12K1 renal = tested on: SN12K1 renal
XF 498 CNS = tested on: XF 498 CNS
LXFL 529 NSCLC = tested on: LXFL 529 NSCLC
P388/ADR leukemia = tested on: P388/ADR leukemia
RXF-631 renal = tested on: RXF-631 renal

Compound | TGI (DLD-1 colon) [µM] | TGI (M19-MEL melanoma) [µM] | TGI (P388 leukemia) [µM] | TGI (SN12K1 renal) [µM] | TGI (XF 498 CNS) [µM] | TGI (LXFL 529 NSCLC) [µM] | TGI (P388/ADR leukemia) [µM] | TGI (RXF-631 renal) [µM]
Nc1ncc2c(n1)-c1ccccc1OC2 | > 100 | > 100 | > 100 | > 100 | > 100 | – | – | –
Cc1ccc(S(=O)(=O)N/N=C\c2c3ccccc3[n+](C)c3ccccc23)cc1 | > 100 | > 100 | – | – | – | – | – | –
O=S(=O)(O)c1cc(N=[N+]([O-])c2ccc(N=Nc3ccccc3)cc2S(=O)(=O)O)ccc1/C=C/c1ccc(N=[N+]([O-])c2ccc(N=Nc3ccccc3)cc2S(=O)(=O)O)cc1S(=O)(=O)O | > 100 | > 100 | > 100 | > 31.6 | > 100 | – | – | –
OC(CCl)CN1CC[N+]2(CC1)CC[N+]1(CCN(CC(O)CCl)CC1)CC2 (stereo not drawn) | – | > 50 | – | – | > 50 | > 50 | – | –
O=[N+]([O-])c1ccc(Nc2cccc3c2[nH]c2c(-c4ccccc4)nccc23)c([N+](=O)[O-])c1 | > 100 | > 100 | > 69.2 | – | > 100 | – | > 100 | –
COc1ccc(C2=NN(c3nsc4ccccc34)C(=O)CC2)cc1 | – | > 100 | – | – | – | > 100 | – | –
CC(C)(C)CC(C)(C)NCC(O)COc1ccc(C(C)(C)c2ccc(OCC(O)CNC(C)(C)CC(C)(C)C)cc2)cc1 (stereo not drawn) | 2.06 | 2.88 | – | – | 3.02 | 1.3 | – | –
CSc1nc(-c2ccccc2)nc(=[N+]2CCOCC2)s1 | > 100 | > 100 | – | – | – | > 100 | – | –
Cc1cc(OCC(O)CO)ccc1Cl (stereo not drawn) | > 100 | > 100 | – | – | – | > 100 | – | > 100
